A word on the Kd: it is the concentration at which binding is half-saturated.

Series [1] in a line: skin deposition of Cou6 from two-dye dendron micelles (CLSM, spectrofluorometer). Type of series: in vitro ADME, mouse. As to the method:
To prepare two-dye dendron micelles, two milligrams of acetylated, RHO-labeled PDC (PDC-RHO-Ac) was combined with 10 mg of unlabeled surface modified PDC in 1.2 mL DMF, and 2% (wt %) of Cou6 was added to the mixture. The materials were fully dissolved and mixed by brief vortexing followed by gentle shaking for 2 h. The Cou6-encapsulated, RHO-labeled dendron micelles were prepared by the dialysis method, and the solid material was obtained by lyophilization as described above.
SKH-1 hairless mouse skin was exposed to the Cou6-loaded micelles with different surfaces for 24 h in the Franz cell setup. The skin area that was exposed to the treatment was carefully collected, rinsed twice with ddH2O for 10 min and embedded into cryomolds (Tissue-Tek®, Sakura Finetek USA, Inc., Torrance, Calif.). Skin was cryosectioned into 80 um-thick slices and placed on anti-frost glass slides. The slides were then fixed by 10% neutral buffered formalin for 10 min at RT and rinsed with ddH2O. The skin slides were mounted with antiphotobleaching mounting media with DAPI (Vector Laboratory Inc., Burlingame, Calif.) and covered with glass cover slips. […]
After the two-dye micelle experiment, the fluorescence intensity in the donor and receiver solutions, as well as skin extracts were detected using a SoftMax Pro spectrofluorometer (Spectra MAX, Molecular Devices Inc., Sunnyvale, Calif.). […]

The next series addresses folate receptors (FR). Conditions: read-out: affinity for FR (KD); cited from earlier work.
The conditions of series [2]: 25° C.; cited from earlier work.
For a further series, the system named is MDA-MB-231 cells. As to the kind of experiment: in vitro anti-proliferation assay (MTS) against MDA-MB-231. The class given is cell-based. Conditions: ER-negative; comparable drug concentrations; listed as free EDX.

“Also recorded” adds a separate entry of the source.

`CCN(CC)c1ccc2cc(-c3nc4ccccc4s3)c(=O)oc2c1` [free Cou6, Coumarin-6]: the “Cou6 delivered into skin (skin extract)” value in series [1] (Cou6-encapsulated, RHO-labeled micelles or free Cou6 in ethanol, mouse skin) is listed as 26.48±2.51%. Moreover, the “Cou6 distribution in skin layers (CLSM)” value in series [1] (mouse skin cross-sections after Franz cell experiment) is “could not diffuse efficiently into the skin layers”.

In the case of `Nc1nc2ncc(CNc3ccc(C(=O)N[C@@H](CCC(=O)O)C(=O)O)cc3)nc2c(=O)[nH]1` [FA, folic acid], the dissociation constant Kd at folate receptors (FR) is around 0.1 nM.

In the case of `CC/C(=C(\c1ccc(O)cc1)c1ccc(OCCNC)cc1)c1ccccc1` [EDX, 4-hydroxy-N-desmethyl tamoxifen], in series [2], the “partition coefficient (log P)” value is on record as 6.01. For the same compound, the “anti-proliferative effect / cytotoxicity against MDA-MB-231 cells” value in the series with MDA-MB-231 cells was “neither free EDX nor EDX-loaded micelles had significant cytotoxicity; also recorded: Neither free EDX nor EDX-loaded DMs exhibited significant anti-proliferative effect”.

Values taken from patent US10543171B2, “Dermal drug delivery using amphiphilic dendron-coil micelles” (THE BOARD OF TRUSTEES OF THE UNIVERSITY OF ILLINOIS, priority 2013, dated 2020).
